The source of these data is ChEMBL document CHEMBL3352711, “Discovery and Characterization of ML398, a Potent and Selective Antagonist of the D4 Receptor with in Vivo Activity” (ACS Med Chem Lett, 2014).

pIC50, pKi: −log10 of the molar value. The source made the active and inactive calls. No cut-off for these calls is given here.

The target of data set [1] is T1, D(4) dopamine receptor (Homo sapiens, UniProt P21917).
T1 sequence (P21917 whole entry): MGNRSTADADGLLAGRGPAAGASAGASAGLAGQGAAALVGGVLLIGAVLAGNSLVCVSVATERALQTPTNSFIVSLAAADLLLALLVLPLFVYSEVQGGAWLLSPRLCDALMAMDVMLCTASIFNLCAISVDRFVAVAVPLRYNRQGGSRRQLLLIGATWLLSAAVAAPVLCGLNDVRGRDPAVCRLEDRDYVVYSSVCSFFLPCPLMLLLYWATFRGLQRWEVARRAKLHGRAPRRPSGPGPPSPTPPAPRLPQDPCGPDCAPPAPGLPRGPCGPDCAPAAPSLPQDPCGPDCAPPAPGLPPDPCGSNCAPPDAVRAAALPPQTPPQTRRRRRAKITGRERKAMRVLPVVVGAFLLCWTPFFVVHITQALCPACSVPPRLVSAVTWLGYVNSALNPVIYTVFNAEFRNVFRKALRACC
Nature of the data set: Inhibition of human dopamine D4 receptor.

Data set [2] addresses T2, D(4) dopamine receptor (Homo sapiens) (UniProt P21917).
T2 sequence (whole entry): T1 sequence (P21917 whole entry)
Put plainly: Inhibition of human dopamine D4 receptor at 10 uM.

The target of data set [3] is D(1A) dopamine receptor (Homo sapiens, UniProt P21728). Put plainly: Inhibition of human dopamine D1 receptor.
Chain of D(1A) dopamine receptor (P21728 whole entry): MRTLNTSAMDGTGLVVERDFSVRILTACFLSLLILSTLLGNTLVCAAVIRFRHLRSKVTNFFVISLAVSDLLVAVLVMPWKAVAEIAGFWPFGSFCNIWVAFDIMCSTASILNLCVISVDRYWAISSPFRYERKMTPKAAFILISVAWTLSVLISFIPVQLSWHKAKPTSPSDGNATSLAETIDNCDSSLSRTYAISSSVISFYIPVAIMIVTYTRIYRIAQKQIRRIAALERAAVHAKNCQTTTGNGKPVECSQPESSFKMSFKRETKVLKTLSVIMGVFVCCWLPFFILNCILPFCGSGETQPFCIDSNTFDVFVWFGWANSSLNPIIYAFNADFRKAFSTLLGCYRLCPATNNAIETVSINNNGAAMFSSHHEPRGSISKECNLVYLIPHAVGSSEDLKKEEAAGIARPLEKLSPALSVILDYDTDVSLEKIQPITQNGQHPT
Data set [4] concerns the target D(3) dopamine receptor (Homo sapiens, UniProt P35462). Put plainly: Inhibition of human dopamine D3 receptor.
Data set [5] has as its target T3, D(2) dopamine receptor (Homo sapiens, UniProt P14416). Nature of the data set: Inhibition of human dopamine D2S receptor.
In data set [6] the target is D(1B) dopamine receptor (Homo sapiens) (UniProt P21918). Nature of the data set: Inhibition of human dopamine D5 receptor.
Chain of D(1B) dopamine receptor (Homo sapiens) (P21918 whole entry): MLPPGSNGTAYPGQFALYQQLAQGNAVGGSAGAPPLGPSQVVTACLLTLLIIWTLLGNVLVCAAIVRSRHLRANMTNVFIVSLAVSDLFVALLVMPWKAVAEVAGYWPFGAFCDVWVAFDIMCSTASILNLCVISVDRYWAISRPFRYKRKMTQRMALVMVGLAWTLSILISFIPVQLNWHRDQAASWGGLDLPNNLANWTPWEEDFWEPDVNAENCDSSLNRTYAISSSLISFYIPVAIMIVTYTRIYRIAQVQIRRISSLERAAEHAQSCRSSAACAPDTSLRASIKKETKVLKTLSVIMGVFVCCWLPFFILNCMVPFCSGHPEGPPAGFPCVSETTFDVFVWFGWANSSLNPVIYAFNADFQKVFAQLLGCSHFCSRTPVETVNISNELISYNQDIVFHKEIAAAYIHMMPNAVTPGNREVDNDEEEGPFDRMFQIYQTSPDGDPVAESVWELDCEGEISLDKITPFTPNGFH
The target of data set [7] is T3, D(2) dopamine receptor. Nature of the data set: Inhibition of human dopamine D2L receptor.
Data set [8] addresses T4, Cytochrome P450 1A2 (Homo sapiens, UniProt P05177).
T4 sequence (P05177 whole entry): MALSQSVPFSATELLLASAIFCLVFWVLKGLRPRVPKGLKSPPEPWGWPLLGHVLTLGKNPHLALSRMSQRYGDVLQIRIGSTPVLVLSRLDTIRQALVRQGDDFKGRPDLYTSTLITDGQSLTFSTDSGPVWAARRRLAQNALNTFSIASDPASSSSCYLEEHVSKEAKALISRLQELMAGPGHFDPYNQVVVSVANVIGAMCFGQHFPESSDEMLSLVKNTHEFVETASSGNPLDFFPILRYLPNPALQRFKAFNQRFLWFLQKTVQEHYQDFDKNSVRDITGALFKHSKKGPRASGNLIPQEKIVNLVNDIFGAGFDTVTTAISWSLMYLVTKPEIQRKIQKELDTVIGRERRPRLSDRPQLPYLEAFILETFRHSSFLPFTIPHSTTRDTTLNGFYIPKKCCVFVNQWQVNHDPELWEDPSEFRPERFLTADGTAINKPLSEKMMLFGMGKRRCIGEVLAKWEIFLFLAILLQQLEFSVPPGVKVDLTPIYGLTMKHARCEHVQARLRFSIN
Put plainly: Inhibition of human CYP1A2 by electrospray ionization. The class given is ADME.

The nature of data set [9]: Drug uptake in Sprague-Dawley rat plasma at 10 mg/kg, ip after 0.25 hrs. The arrangement: dose 10 mg/kg, route intraperitoneal. The class given is ADME, organism-based.
The test system of data set [10] is Rattus norvegicus. Nature of the data set: Reversal of cocaine-induced hyperlocomotion in Sprague-Dawley rat at 10 mg/kg, ip. The arrangement: dose 10 mg/kg. In kind it is functional, organism-based.
Data set [11] has as its target Sodium-dependent noradrenaline transporter (Homo sapiens) (UniProt P23975). Nature of the data set: Binding affinity to norepinephrine transporter (unknown origin) at 10 uM by radioligand binding assay.
In data set [12] the target is Cytochrome P450 2C9 (Homo sapiens, UniProt P11712). Put plainly: Inhibition of human CYP2C9 by electrospray ionization. In kind it is ADME.
Chain of Cytochrome P450 2C9 (P11712 whole entry): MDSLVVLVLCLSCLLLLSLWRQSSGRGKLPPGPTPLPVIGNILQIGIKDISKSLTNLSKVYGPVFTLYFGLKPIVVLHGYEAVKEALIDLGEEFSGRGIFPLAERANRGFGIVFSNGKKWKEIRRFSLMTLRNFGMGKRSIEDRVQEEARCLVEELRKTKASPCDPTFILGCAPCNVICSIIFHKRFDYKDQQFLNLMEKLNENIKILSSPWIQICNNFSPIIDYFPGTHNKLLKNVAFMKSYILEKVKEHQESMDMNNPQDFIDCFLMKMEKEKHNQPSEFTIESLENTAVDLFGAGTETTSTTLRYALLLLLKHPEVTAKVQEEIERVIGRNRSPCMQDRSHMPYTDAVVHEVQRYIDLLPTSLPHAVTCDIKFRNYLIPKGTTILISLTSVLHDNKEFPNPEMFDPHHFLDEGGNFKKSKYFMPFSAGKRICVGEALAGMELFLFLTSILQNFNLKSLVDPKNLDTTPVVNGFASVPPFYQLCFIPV
Data set [13] deals with Sodium-dependent dopamine transporter (Homo sapiens) (UniProt Q01959). Nature of the data set: Binding affinity to dopamine transporter (unknown origin) at 10 uM by radioligand binding assay.
Data set [14] can be described thus: Fraction unbound in human plasma. The class given is ADME, cell-free.
Data set [15] addresses Cytochrome P450 2D6 (Homo sapiens, UniProt P10635). Nature of the data set: Inhibition of human CYP2D6 by electrospray ionization. In kind it is ADME.
Data set [16] can be described thus: Ratio of drug level in Sprague-Dawley rat brain to plasma at 10 mg/kg, ip after 0.25 hrs. The class given is ADME, organism-based. The arrangement: dose 10 mg/kg, route intraperitoneal.
For data set [17], the target named is Histamine H1 receptor (Homo sapiens) (UniProt P35367). Put plainly: Binding affinity to histamine H1 receptor (unknown origin) at 10 uM by radioligand binding assay.
Chain of Histamine H1 receptor (Homo sapiens) (P35367 whole entry): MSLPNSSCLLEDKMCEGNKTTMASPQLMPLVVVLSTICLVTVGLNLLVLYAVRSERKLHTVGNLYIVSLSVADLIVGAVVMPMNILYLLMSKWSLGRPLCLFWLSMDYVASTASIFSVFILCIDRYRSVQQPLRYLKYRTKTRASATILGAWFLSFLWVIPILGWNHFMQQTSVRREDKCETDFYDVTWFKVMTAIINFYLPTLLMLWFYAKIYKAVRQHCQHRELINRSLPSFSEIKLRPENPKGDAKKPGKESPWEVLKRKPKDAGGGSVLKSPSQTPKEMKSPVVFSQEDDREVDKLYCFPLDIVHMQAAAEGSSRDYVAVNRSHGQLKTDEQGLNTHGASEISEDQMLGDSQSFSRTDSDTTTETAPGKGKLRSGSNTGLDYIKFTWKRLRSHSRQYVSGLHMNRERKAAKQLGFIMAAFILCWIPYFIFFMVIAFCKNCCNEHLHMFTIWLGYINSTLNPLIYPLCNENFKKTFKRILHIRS
The nature of data set [18]: Drug uptake in Sprague-Dawley rat brain at 10 mg/kg, ip after 0.25 hrs. In kind it is ADME, organism-based. The arrangement: dose 10 mg/kg, route intraperitoneal.
For data set [19], the target named is Cytochrome P450 3A4 (Homo sapiens, UniProt P08684). Nature of the data set: Inhibition of human CYP3A4 by electrospray ionization. In kind it is ADME.
Chain of Cytochrome P450 3A4 (P08684 whole entry): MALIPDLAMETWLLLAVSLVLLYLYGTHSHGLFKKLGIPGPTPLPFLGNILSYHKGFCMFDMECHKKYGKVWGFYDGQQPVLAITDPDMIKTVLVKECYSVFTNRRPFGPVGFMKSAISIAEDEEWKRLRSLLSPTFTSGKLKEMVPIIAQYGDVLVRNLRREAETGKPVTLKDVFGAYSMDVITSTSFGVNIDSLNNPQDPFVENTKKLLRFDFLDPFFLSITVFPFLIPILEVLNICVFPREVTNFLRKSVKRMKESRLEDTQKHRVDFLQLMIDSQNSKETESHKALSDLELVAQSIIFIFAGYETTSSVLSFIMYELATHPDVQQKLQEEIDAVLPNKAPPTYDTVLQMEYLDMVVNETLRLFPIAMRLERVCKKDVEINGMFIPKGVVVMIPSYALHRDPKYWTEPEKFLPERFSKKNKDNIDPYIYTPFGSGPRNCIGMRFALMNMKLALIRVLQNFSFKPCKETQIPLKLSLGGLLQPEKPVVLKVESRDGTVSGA
The target in data set [20] is Sigma non-opioid intracellular receptor 1 (Homo sapiens) (UniProt Q99720). Nature of the data set: Binding affinity to sigma 1 receptor (unknown origin) at 10 uM by radioligand binding assay.
Chain of Sigma non-opioid intracellular receptor 1 (Homo sapiens) (Q99720 whole entry): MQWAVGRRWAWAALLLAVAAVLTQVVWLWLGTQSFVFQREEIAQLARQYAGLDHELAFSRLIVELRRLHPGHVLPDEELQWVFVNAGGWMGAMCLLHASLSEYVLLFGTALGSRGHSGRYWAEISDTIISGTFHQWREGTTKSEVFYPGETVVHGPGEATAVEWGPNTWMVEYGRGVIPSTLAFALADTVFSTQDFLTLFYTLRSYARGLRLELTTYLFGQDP
Data set [21] is described as follows: Fraction unbound in rat plasma. The class given is ADME, cell-free.
In data set [22] the target is T5, Alpha-1A adrenergic receptor (Homo sapiens) (UniProt P35348).
T5 sequence (whole entry): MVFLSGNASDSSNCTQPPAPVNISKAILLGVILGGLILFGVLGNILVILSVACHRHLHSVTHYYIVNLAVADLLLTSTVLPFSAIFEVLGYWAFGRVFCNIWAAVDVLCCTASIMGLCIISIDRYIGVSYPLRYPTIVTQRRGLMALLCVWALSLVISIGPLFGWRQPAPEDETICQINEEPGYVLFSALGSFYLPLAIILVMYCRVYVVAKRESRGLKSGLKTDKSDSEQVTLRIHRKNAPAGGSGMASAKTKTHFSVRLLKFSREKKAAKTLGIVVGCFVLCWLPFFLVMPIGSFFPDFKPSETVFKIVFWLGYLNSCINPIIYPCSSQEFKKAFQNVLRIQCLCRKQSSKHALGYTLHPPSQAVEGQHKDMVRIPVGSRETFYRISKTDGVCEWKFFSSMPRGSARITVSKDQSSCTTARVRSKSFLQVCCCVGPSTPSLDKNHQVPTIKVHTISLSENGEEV
Nature of the data set: Binding affinity to adrenergic alpha1A receptor (unknown origin) at 10 uM by radioligand binding assay.

The target of data set [23] is T3, D(2) dopamine receptor. Put plainly: Inhibition of human dopamine D2 receptor.
Data set [24] concerns Rattus norvegicus. Put plainly: Reversal of cocaine-induced hyperlocomotion in Sprague-Dawley rat at 3 mg/kg, ip. The arrangement: dose 3 mg/kg. In kind it is functional, organism-based.

Chain of D(3) dopamine receptor (P35462 whole entry): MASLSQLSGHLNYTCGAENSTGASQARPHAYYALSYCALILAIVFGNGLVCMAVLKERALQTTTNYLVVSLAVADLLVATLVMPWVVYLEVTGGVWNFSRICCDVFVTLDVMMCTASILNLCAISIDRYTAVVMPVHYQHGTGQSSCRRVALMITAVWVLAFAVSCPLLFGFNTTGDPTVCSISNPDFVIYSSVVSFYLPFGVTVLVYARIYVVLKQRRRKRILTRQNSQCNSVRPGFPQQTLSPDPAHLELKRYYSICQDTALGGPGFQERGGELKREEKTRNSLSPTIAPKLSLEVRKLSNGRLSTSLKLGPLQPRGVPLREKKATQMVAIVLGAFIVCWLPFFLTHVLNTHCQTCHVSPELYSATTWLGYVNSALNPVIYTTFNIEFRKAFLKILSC
T3 sequence (P14416 whole entry): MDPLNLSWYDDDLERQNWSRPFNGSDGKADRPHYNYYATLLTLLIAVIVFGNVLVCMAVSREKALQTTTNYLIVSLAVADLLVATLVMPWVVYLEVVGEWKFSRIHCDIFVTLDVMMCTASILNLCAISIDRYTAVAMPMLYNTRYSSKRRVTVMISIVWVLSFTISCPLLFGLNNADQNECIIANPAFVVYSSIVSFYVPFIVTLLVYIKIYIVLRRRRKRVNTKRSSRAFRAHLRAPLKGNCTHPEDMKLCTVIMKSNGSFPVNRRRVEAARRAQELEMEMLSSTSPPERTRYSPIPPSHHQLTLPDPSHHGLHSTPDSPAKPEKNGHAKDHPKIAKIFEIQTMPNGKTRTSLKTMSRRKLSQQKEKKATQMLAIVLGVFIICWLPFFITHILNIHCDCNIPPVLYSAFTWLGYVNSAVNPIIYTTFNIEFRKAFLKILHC
Chain of Cytochrome P450 2D6 (P10635 whole entry): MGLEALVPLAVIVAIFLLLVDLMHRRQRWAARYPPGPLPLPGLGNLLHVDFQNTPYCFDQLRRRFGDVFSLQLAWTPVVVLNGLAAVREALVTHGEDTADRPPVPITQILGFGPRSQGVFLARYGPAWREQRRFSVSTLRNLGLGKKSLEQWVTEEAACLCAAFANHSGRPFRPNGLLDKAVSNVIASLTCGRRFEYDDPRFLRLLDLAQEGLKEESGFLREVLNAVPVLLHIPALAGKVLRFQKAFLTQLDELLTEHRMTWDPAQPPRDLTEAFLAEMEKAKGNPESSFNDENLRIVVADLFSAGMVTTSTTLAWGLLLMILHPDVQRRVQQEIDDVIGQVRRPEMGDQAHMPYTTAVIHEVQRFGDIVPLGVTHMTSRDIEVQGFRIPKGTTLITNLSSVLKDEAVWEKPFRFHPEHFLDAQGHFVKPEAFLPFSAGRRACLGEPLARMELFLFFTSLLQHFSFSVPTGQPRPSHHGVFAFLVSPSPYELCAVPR
Chain of Sodium-dependent noradrenaline transporter (Homo sapiens) (P23975 whole entry): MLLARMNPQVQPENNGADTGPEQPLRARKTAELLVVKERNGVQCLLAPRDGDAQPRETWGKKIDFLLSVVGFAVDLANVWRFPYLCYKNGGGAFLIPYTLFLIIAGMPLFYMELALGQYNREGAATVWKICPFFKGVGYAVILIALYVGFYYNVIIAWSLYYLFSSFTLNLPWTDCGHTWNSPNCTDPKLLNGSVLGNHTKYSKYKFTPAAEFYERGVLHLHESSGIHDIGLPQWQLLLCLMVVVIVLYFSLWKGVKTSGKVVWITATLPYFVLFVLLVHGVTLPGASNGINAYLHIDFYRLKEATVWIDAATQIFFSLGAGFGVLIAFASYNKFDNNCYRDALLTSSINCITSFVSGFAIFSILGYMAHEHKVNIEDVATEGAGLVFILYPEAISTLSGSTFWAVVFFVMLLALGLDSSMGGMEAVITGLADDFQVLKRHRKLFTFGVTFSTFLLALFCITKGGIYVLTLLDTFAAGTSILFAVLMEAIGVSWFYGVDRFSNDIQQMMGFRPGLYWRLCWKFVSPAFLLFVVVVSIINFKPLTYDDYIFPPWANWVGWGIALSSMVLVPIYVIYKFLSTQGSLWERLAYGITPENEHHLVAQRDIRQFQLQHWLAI

For orientation: pIC50 means the IC50 on a negative log10 scale, so that one unit is a factor of ten. Lower therefore signals a high IC50. By pKi is commonly meant the Ki on a negative log10 scale, so that one unit is a factor of ten. A low value points to a high Ki. One may read the inhibition as the change of the read-out against control, counted positive when it falls. Low values mean little suppression, high ones strong suppression. In data set [1], `Fc1cccc(F)c1CN1CCOC(CCc2ccccc2)C1` (racemic) gave a pIC50 of 5.41 and a pKi of 5.97. Further, the inhibition in [2] was 51%.
As for `COc1ccc(CN2CCOC(CCc3ccccc3)C2)cc1` (racemic), the INH in data set [3], in data set [5] and in data set [6] was > 20 µM in each case. For the same molecule, the pIC50 is 5.09 in data set [4], 6.77 in data set [1] and 4.78 in data set [7]. For the same molecule, the pKi in data set [4] is 5.56; in data set [1], 7.34. For the same molecule, in data set [2], the inhibition turned out to be 98%.
One may read the fraction unbound as the share of the substance not bound to proteins or other matrix. The term Kp denotes the ratio of the level in a tissue or fluid to that in plasma or blood. For the molecule `Clc1ccc(CN2CCO[C@H](CCc3ccccc3)C2)cc1`, the pIC50 was < 4.52 in [8]; < 4.52 in [12]; 4.74 in data set [15]; 6.89 in data set [1]; < 4.52 in data set [19]. Moreover, the concentration at 0.25 h amounted to 482 nM in [9] and 987 nM in data set [18]. Moreover, in data set [10], the result was Active. Also, the Activity in [11] turned out to be 68%; in data set [13], 72%; in [17], 93%; in data set [20], 99%; in data set [22], 77%. For the same molecule, the INH in [3], in data set [4], in data set [5], in data set [6] and in data set [7] was > 20 µM each time. Besides, the figures for the fraction unbound in data set [14] and in data set [21] were 0.061 and 0.039, respectively. Moreover, in data set [16], the Kp at 0.25 h worked out at 2. The pKi in data set [1] was 7.44. In [2], this molecule registered an inhibition of 96%.
In the case of `Fc1ccc(CN2CCOC(CCc3ccccc3)C2)cc1` (racemic), in data set [1], the negative-log IC50 (pIC50) was 5.94 and the negative-log Ki (pKi) was 6.49. Further, in data set [2], the inhibition worked out at 88%.
Consider `O=C(Nc1ccc(F)cc1)N1CCOC(CCc2ccccc2)C1` (racemic), for which the inhibition in data set [2] was 5%.
In data set [1], `c1ccc(CCC2CN(Cc3ccccc3)CCO2)cc1` (racemic) showed a pIC50 of 5.83 and a pKi of 6.39. The molecule further showed an inhibition in data set [2] of 74%.
`FC(F)(F)Oc1ccc(CN2CCOC(CCc3ccccc3)C2)cc1` (racemic): the INH in data set [3], in [5] and in data set [6] was > 20 µM in each case. The pIC50 in [4] is 5.09; in [1], 6.80. Besides, the pKi was 5.56 in data set [4], 7.37 in data set [1] and 5.26 in data set [7]. Moreover, the inhibition in data set [2] turned out to be 94%.
On to `c1ccc(CCC2CN(Cc3nc4ccccc4[nH]3)CCO2)cc1` (racemic), for which the pIC50 was < 4.00 in data set [3], < 4.00 in data set [23], 4.50 in data set [4] and 6.44 in data set [1]. Further, the pKi in data set [3] is < 4.00; in data set [23] it was < 4.00; in [4], 4.97; in data set [1] it was 6.85.
Consider `Clc1ccc(CN2CCOC(CCc3ccccc3)C2)cc1` (racemic), for which the INH in data set [3], in data set [4], in [5], in [6] and in data set [7] was > 20 µM throughout. Further, the pIC50 in [1] is 6.54. Besides, the pKi in data set [1] is 7.09. Also, the inhibition in data set [2] worked out at 97%.
As to `c1ccc(CCC2CN(Cc3ccncc3)CCO2)cc1` (racemic), the inhibition in data set [2] was found to be 13%.
As to `Cn1c(N2CCOC(CCc3ccccc3)C2)nc2ccccc21` (racemic), the inhibition in data set [2] worked out at 17%.
Take `Cc1ccccc1CN1CCOC(CCc2ccccc2)C1` (racemic): in data set [1], the pIC50 is 5.43 and the pKi was 5.99. In addition, the inhibition in [2] worked out at 54%.
Turning to `Cc1ccc(C(=O)N2CCOC(CCc3ccccc3)C2)cc1` (racemic), the inhibition in data set [2] was determined as 17%.
Same read-out and setting: for `c1ccc(CCC2CN(Cc3ccccn3)CCO2)cc1` (racemic) the value was 23%; for `c1ccc(CCC2CN(Cc3cccnc3)CCO2)cc1` (racemic), 35%.
The molecule `c1ccc(CCC2CN(c3ccccc3)CCO2)cc1` (racemic) returned an inhibition in data set [2] of 5%.
In turn, `O=S(=O)(c1ccccc1)N1CCOC(CCc2ccccc2)C1` (racemic) displayed an inhibition in data set [2] of 2%.
Turning to `c1ccc(CC[C@H]2CN(Cc3nc4ccccc4[nH]3)CCO2)cc1`, the pIC50 in data set [3] was < 4.00; in [23], < 4.00; in [4] it was 4.12; in data set [1], < 4.00. For the same molecule, the negative logarithm of the Ki (pKi) in [3] was < 4.00; in data set [23], < 4.00; in data set [4], 4.59; in [1], < 4.00.
In the case of `c1ccc(CC[C@@H]2CN(Cc3nc4ccccc4[nH]3)CCO2)cc1`, the pIC50 in data set [8] is 4.88; in data set [3] it was < 4.00; in data set [23], < 4.00; in data set [12], 5.32; in data set [4], 4.34; in [15], 4.92. The pIC50 in [1] was 6.74; in data set [19], 4.81. The concentration at 0.25 h in data set [9] worked out at 1940 nM; in [18] it was 3560 nM. Moreover, the outcome in [10] and in data set [24] was inactive. The pKi in data set [3] is < 4.00; in [23] it was < 4.00; in data set [4], 4.80; in [1], 7.15. For the same molecule, the fraction unbound in [14] was found to be 0.012; in data set [21] it was 0.133. In addition, the Kp at 0.25 h in data set [16] is 1.8.
In data set [1], `FC(F)(F)Oc1cccc(CN2CCOC(CCc3ccccc3)C2)c1` (racemic) showed a pIC50 of 6.41 and a pKi of 6.96. In addition, in [2], the inhibition amounted to 88%.
For `FC(F)(F)Oc1ccc(CN2CCO[C@H](CCc3ccccc3)C2)cc1`, the INH in data set [3], in [5] and in data set [6] was > 20 µM in each case. Moreover, the figures for the pIC50 in [4] and in data set [1] were 5.09 and 6.64, respectively. For the same molecule, the pKi in data set [4] was 5.56; in [1] it was 7.19; in data set [7] it was 5.26. Moreover, the inhibition in data set [2] stood at 96%.
